From US9475765B2, “Polymorphs of N- (2 -methoxybenzoyl) -4- [ (methylaminocarbonyl) amino] benzenesulfonamide” (Syngenta Limited, priority 2012, dated 2016)

Assay: Stability of polymorphs: slurry of Form 1, Form 2 and Form 3 in ethanol, crystal form examined by powder X-ray diffraction
Type: physicochemical
Procedure: Powder X-ray diffraction analysis of solid material was carried out using the Briker D8 powder diffractometer. Samples were mounted in Perspex sample holders and the samples flattened. The sample holder was rotated and X-rays were collected from 4° to 34° 2-theta, with a scan time of 25 to 30 minutes depending on the pattern intensity. Approximately 0.1 g each of Form 1, Form 2 and Form 3 were added to 10 ml of ethanol at 50° C. and 60° C. until there were solids out of solution (a slurry). The temperature was maintained with stirring and the crystal form examined after 2 and 8 days.

[1] = about 0.1 g each of Form 1, Form 2 and Form 3 in 10 ml ethanol, stirred slurry at 50° C. and 60° C.

crystal form present in slurry after 2 days [1]	crystal form present in slurry after 8 days (about 0.1 g each of Form 1, Form 2 and Form 3 in 10 ml ethanol, stirred slurry at 50° C. and 60° C., 8 days in total)	stability relative to the other polymorphs (general statement in the description, Form 2 compared with Form 1 and Form 3)	SMILES
no evidence of Form 1			CNC(=O)Nc1ccc(S(=O)(=O)NC(=O)c2ccccc2OC)cc1 [Form 1, N-(2-methoxybenzoyl)-4-[(methylaminocarbonyl)amino]benzenesulfonamide]
still present	complete conversion to Form 2	stable polymorph	CNC(=O)Nc1ccc(S(=O)(=O)NC(=O)c2ccccc2OC)cc1 [Form 2, N-(2-methoxybenzoyl)-4-[(methylaminocarbonyl)amino]benzenesulfonamide]
still present			CNC(=O)Nc1ccc(S(=O)(=O)NC(=O)c2ccccc2OC)cc1 [Form 3, N-(2-methoxybenzoyl)-4-[(methylaminocarbonyl)amino]benzenesulfonamide]
